Literature values in patent publication US7829544B2, “Aqueous solution preparation containing aminoglycoside antibiotic and bromfenac” (Senju Pharmaceutical Co., Ltd., priority 2003, dated 2010).

Settings: tobramycin combined with diclofenac sodium

Compound: NC[C@H]1O[C@H](O[C@H]2[C@H](O)[C@@H](O[C@H]3O[C@H](CO)[C@@H](O)[C@H](N)[C@H]3O)[C@H](N)C[C@@H]2N)[C@H](N)C[C@@H]1O [tobramycin]
- behaviour of the combination solution: precipitation or suspension formation occurs
